From patent publication US10633389B2, “CARM1 inhibitors and uses thereof” (Epizyme, Inc., priority 2013, dated 2020)

Test system: asymmetric di-methyl PABP1 in RKO cells
Assay: RKO methylation assay, In Cell Western (ICW) for asymmetric di-methyl PABP1
Format: cell-based
Details: Homo sapiens, RKO, Cellular potencies, ICW PABP1me2a
Summary of the method: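 RKO cells treated with compound for 48 h at 37 °C, then fixed, permeabilized and immunostained for asymmetric di-methyl PABP1, with DRAQ5 as DNA stain. Infrared 700/800 nm signal ratio normalized to DMSO and 20 μM reference-compound controls; IC50 from triplicate wells.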

Row | IC50 [µM] | Structure (SMILES)
1 | 5 to 10 | CNCC(O)COc1cccc(-c2nc(-c3ccncc3)c(C)c(N(C)C3CCOCC3)n2)c1 (stereo not shown) [Example 537-1a]
2 | < 5 | CNC[C@@H](O)COc1ccc(Cl)c(-c2nc(NC3CC4(C3)CN(C(=O)OC)C4)c(C)c(-c3c(C)noc3C)n2)c1 [Example 146-3]
3 | < 5 | CNCC(O)COc1cccc(-c2nc(NCC3CCOCC3)c(C)c(-c3c(C)noc3C)n2)c1 (stereo not shown) [Example 88-1a]
4 | < 5 | CNCC(O)COc1cccc(-c2nc(N[C@@H]3CCOC3)c(C)c(-c3c(C)noc3C)n2)c1 (stereo partly shown) [Example 66-1a]
5 | < 5 | CCOC(=O)N1CCC(Nc2nc(-c3cc(OC[C@H](O)CNC)ccc3Cl)nc(-c3c(C)noc3C)c2C)CC1 [Example 88-3]
6 | 5 to 10 | CNCC(O)COc1cccc(-c2nc(NC[C@H]3COCCN3C(=O)N(C)C)c(C)c(-c3c(C)noc3C)n2)c1 (stereo partly shown) [Example 258-1a]
7 | < 5 | CNCC(O)COc1cccc(-c2nc(NC3CCCN(C(=O)OC)C3)c(C)c(-c3c(C)noc3C)n2)c1 (stereo not shown) [Example 201-1a]
8 | < 5 | CCOC(=O)N1CC[C@@H](Nc2nc(-c3cccc(OCC(O)CNC)c3)nc(-c3c(C)noc3C)c2C)[C@@H](F)C1 (stereo partly shown) [Example 226-1a]
9 | 10 to 20 | CNCC(O)COc1cc(Cl)cc(-c2nc(N[C@H]3CCOC3)cc(-c3c(C)noc3C)n2)c1 (stereo partly shown) [Example 12-1a]
10 | < 5 | CCOC(=O)N1CCC[C@@H]1COc1nc(-c2cc(OC[C@H](O)CNC)ccc2Cl)nc(-c2c(C)noc2C)c1C [Example 133-3]
11 | 5 to 10 | CNCC(O)COc1cccc(-c2nc(N[C@@H]3CCOC3)c(C)c(N3CC[C@@H](O)C3)n2)c1 (stereo partly shown) [Example 437-1a]
12 | < 5 | CNCC(O)COc1cccc(-c2nc(NC3CCN(C(=O)OC)CC3)c(Cl)c(-c3c(C)noc3C)n2)c1 (stereo not shown) [Example 202-1a]
13 | < 5 | CNC[C@@H](O)COc1ccc(Cl)c(-c2nc(-c3c(C)noc3C)c(C)c(N3Cc4cn(C(C)C)nc4C3)n2)c1 [Example 272-3]
14 | < 5 | CNC[C@@H](O)COc1ccc(Cl)c(-c2nc(-c3c(C)noc3C)c(C)c(N3Cc4cccc(F)c4C3)n2)c1 [Example 267-3]
15 | 10 to 20 | CNCC(O)COc1cccc(-c2nc(N[C@@H]3CCOC3)c(C)c(-c3cn[nH]c3)n2)c1 (stereo partly shown) [Example 338-1a]
16 | < 5 | CNC[C@@H](O)COc1ccc(Cl)c(-c2nc(N[C@H]3CCO[C@@H](C)C3)c(C)c(-c3c(C)noc3C)n2)c1 [Example 128-3]
17 | 5 to 10 | CNCC(O)COc1cccc(-c2nc(NCC3CCOCC3)cc(-c3c(C)noc3C)n2)c1 (stereo not shown) [Example 78-1a]
18 | < 5 | CNC[C@H](O)COc1ccc(F)c(-c2nc(NCCC(C)(C)OC)c(C)c(-c3c(C)noc3C)n2)c1 [Example 83-3]
19 | < 5 | CNCC(O)COc1cc(Cl)cc(-c2nc(NC3CCN(CC(F)F)CC3)c(C)c(-c3c(C)noc3C)n2)c1 (stereo not shown) [Example 21-3]
20 | < 5 | CCN1CCC[C@@H]1CNc1nc(-c2cc(OC[C@@H](O)CNC)ccc2Cl)nc(-c2c(C)noc2C)c1C [Example 77-3]
21 | < 5 | CNCC(O)COc1cccc(-c2nc(N[C@H]3CCC[C@@H](O)C3)c(C)c(-c3c(C)noc3C)n2)c1 (stereo partly shown) [Example 10-3]
22 | 10 to 20 | CNCC(O)COc1cccc(-c2nc(N[C@@H]3CCOC3)c(C)c(N3CCNCC3)n2)c1 (stereo partly shown) [Example 422-1a]

Row | IC50 [µM] | Structure (SMILES)
23 | < 5 | CNC[C@H](O)COc1ccc(Cl)c(-c2nc(-c3c(C)noc3C)cc(N3CC4(CCN(C5CC5)CC4)C3)n2)c1 [Example 69-3]
24 | < 5 | CNC[C@@H](O)COc1ccc(Cl)c(-c2nc(-c3c(C)noc3C)c(C)c(N3Cc4cnn(C)c4C3)n2)c1 [Example 140-3]
25 | < 5 | CNC[C@@H](O)COc1ccc(Cl)c(-c2nc(N[C@H]3C[C@H](OC)C3)c(C)c(-c3c(C)noc3C)n2)c1 [Example 143-3]
26 | 5 to 10 | CNCC(O)COc1cccc(-c2nc(N[C@H]3CCOC3)cc(-c3c(C)noc3C)n2)c1 (stereo partly shown) [Example 13-1a]
27 | < 5 | CNC[C@H](O)COc1ccc(Cl)c(-c2nc(N[C@@H]3CCOC3)c(C)c(-c3c(C)noc3C)n2)c1 [Example 94-3]
28 | < 5 | CNCC(O)COc1cccc(-c2nc(Nc3nncs3)c(C)c(-c3c(C)noc3C)n2)c1 (stereo not shown) [Example 215-1a]
29 | < 5 | CNC[C@@H](O)COc1ccc(Cl)c(-c2nc(-c3c(C)noc3C)c(C)c(N3Cc4cc(Cl)cnc4C3)n2)c1 [Example 156-3]
30 | < 5 | CNCC(O)COc1cccc(-c2nc(-c3c(C)noc3C)cc(N(C)C3CCN(C(=O)OC)CC3)n2)c1 (stereo not shown) [Example 90-1a]
31 | < 5 | CNCC(O)COc1ccc(C)c(-c2nc(NC3CCOC(C)C3)c(C)c(-c3c(C)noc3C)n2)c1 (stereo not shown) [Example 124-3]
32 | < 5 | CNCC(O)COc1cccc(-c2nc(NCC3CCN(CC(F)F)CC3)c(C)c(-c3c(C)noc3C)n2)c1 (stereo not shown) [Example 205-1a]
33 | < 5 | CNCC(O)COc1cccc(-c2nc(NCC3CCN(C(=O)N(C)C)CC3)c(C)c(-c3c(C)noc3C)n2)c1 (stereo not shown) [Example 248-1a]
34 | < 5 | CNCC(O)COc1cccc(-c2nc(-c3c(C)noc3C)c(C)c(N3CCO[C@H](CN(C)C(=O)OC)C3)n2)c1 (stereo partly shown) [Example 127-1a]
35 | 5 to 10 | CNCC(O)COc1cccc(-c2nc(-c3c(C)noc3C)cc(N3CCNC(C)C3)n2)c1 (stereo not shown) [Example 35-1a]
36 | 5 to 10 | CNCC(O)COc1cccc(-c2nc(-c3c(C)noc3C)c(C)c(N3CCC[C@H](N(C)C(=O)OC)C3)n2)c1 (stereo partly shown) [Example 15-3]
37 | < 5 | CNC[C@H](O)COc1ccc(Cl)c(-c2nc(N[C@@H]3CCN(C(=O)OC)[C@@H](C)C3)c(C)c(-c3c(C)noc3C)n2)c1 [Example 66-3]
38 | < 5 | CNCC(O)COc1cccc(-c2nc(-c3c(C)noc3C)c(C)c(N3CCC4(CC3)CN(C(=O)OC)C4)n2)c1 (stereo not shown) [Example 251-1a]
39 | < 5 | CNC[C@H](O)COc1ccc(F)c(-c2nc(-c3c(C)noc3C)c(C)c(N3Cc4cccnc4C3)n2)c1 [Example 91-3]
40 | < 5 | CNCC(O)COc1cccc(-c2nc(NCC3CCOCC3)c(Cl)c(-c3c(C)noc3C)n2)c1 (stereo not shown) [Example 142-1a]
41 | 5 to 10 | CCO[C@H]1CCC[C@H]1N(CC)c1nc(-c2cc(OC[C@H](O)CNC)ccc2Cl)nc(-c2c(C)noc2C)c1C [Example 255-3]
42 | < 5 | CNCC(O)COc1ccc(Cl)c(-c2nc(O[C@H]3CCN(C(=O)OC)[C@@H](C)C3)c(C)c(-c3c(C)noc3C)n2)c1 (stereo partly shown) [Example 36-3]
43 | < 5 | CNC[C@@H](O)COc1ccc(Cl)c(-c2nc(-c3c(C)noc3C)c(C)c(N3CC4(CCC4)C3)n2)c1 [Example 246-3]
44 | < 5 | CC[C@H]1CN(c2cc(N(C)C3CCOCC3)nc(-c3cccc(OCC(O)CNC)c3)n2)CCN1 (stereo partly shown) [Example 505-1a]

Row | IC50 [µM] | Structure (SMILES)
45 | 10 to 20 | CNCC(O)COc1cccc(-c2nc(-c3c(C)noc3C)c(C)c(N3CCNC(C(F)F)C3)n2)c1 (stereo not shown) [Example 47-3]
46 | 10 to 20 | CNCC(O)COc1cccc(-c2nc(N[C@@H]3CCOC3)c(C)c(N3CC4CCC(C3)O4)n2)c1 (stereo partly shown) [Example 412-1a]
47 | 5 to 10 | CNCC(O)COc1cccc(-c2nc(NC3CN(C(=O)C4CC4)C3)c(C)c(-c3c(C)noc3C)n2)c1 (stereo not shown) [Example 264-1a]
48 | < 5 | CNCC(O)COc1cccc(-c2nc(NC3CCN(C(=O)OC(C)(C)C)C[C@H]3F)c(C)c(-c3c(C)noc3C)n2)c1 (stereo partly shown) [Example 208-1a]
49 | 10 to 20 | CNC[C@@H](O)COc1cccc(-c2nc(-c3c[nH]c4ncncc34)cc(N(C)C3CCOCC3)n2)c1 [Example 571-1a]
50 | < 5 | CNCC(O)COc1cccc(-c2nc(NC3(C)CCOCC3)cc(-c3c(C)noc3C)n2)c1 (stereo not shown) [Example 85-1a]
51 | < 5 | CNCC(O)COc1cccc(-c2nc(-c3cnc4ncccn34)cc(N(C)C3CCOCC3)n2)c1 (stereo not shown) [Example 489-1a]
52 | < 5 | CCc1onc(C)c1-c1nc(-c2cccc(OCC(O)CNC)c2)nc(NC2CCOCC2)c1C (stereo not shown) [Example 276-1a]
53 | < 5 | CNCC(O)COc1cccc(-c2nc(-c3c(C)noc3C)cc(N3CCN(C(=O)N(C)C)[C@H](C)C3)n2)c1 (stereo partly shown) [Example 146-1a]
54 | < 5 | CNC[C@@H](O)COc1ccc(Cl)c(-c2nc(-c3c(C)noc3C)c(C)c(N3CC4(CCN(C(=O)OC(C)C)C4)C3)n2)c1 [Example 286-3]
55 | < 5 | CCC(=O)NC1CN(c2nc(-c3cccc(OCC(O)CNC)c3)nc(-c3c(C)noc3C)c2C)C1 (stereo not shown) [Example 14-3]
56 | < 5 | CNC[C@@H](O)COc1ccc(Cl)c(-c2nc(N[C@H]3C[C@H](OC)C3)c(Cl)c(-c3c(C)noc3C)n2)c1 [Example 217-3]
57 | < 5 | CNCC(O)COc1cccc(-c2nc(NC3CCN(C4CC4)CC3)c(C)c(-c3c(C)noc3C)n2)c1 (stereo not shown) [Example 185-1a]
58 | 10 to 20 | Cc1noc(C)c1-c1cc(NC2CCOCC2)nc(-c2cccc(OC[C@@H](O)CN)c2)n1 [Example 15-1a]
59 | 5 to 10 | CNCC(O)COc1cccc(-c2nc(-c3c(C)noc3C)c(C)c(N3CC[C@@H](S(C)(=O)=O)C3)n2)c1 (stereo partly shown) [Example 111-1a]
60 | < 5 | CNC[C@@H](O)COc1ccc(Cl)c(-c2nc(-c3c(C)noc3C)c(C)c(N3CC4(CCN(C5CC5)C4)C3)n2)c1 [Example 176-3]
61 | < 5 | CNC[C@@H](O)COc1ccc(Cl)c(-c2nc(N[C@@H]3CO[C@@H](C)C3)c(Cl)c(-c3c(C)noc3C)n2)c1 [Example 181-3]
62 | < 5 | CNC[C@@H](O)COc1ccc(Cl)c(-c2nc(-c3c(C)noc3C)c(C)c(N3CCC4(CCOC4)C3)n2)c1 (stereo partly shown) [Example 288-3]
63 | < 5 | CNCC(O)COc1cccc(-c2nc(N[C@@H]3CCOC3)c(C)c(N3CCN(C4CC4)CC3)n2)c1 (stereo partly shown) [Example 436-1a]
64 | < 5 | CNC[C@@H](O)COc1ccc(Cl)c(-c2nc(-c3c(C)noc3C)c(C)c(N(C)[C@H]3CC[C@@H](OC)C3)n2)c1 [Example 213-3]
65 | < 5 | CNC[C@@H](O)COc1ccc(F)c(-c2nc(-c3c(C)noc3C)cc(N3CC4(CCOCC4)C3)n2)c1 [Example 277-3]
66 | < 5 | CNCC(O)COc1cccc(-c2nc(NC3(C)CCOCC3)c(C)c(-c3c(C)noc3C)n2)c1 (stereo not shown) [Example 101-1a]

Row | Structure (SMILES) | IC50 [µM]
67 | CNCC(O)COc1cccc(-c2nc(N[C@H]3C[C@H]4CC[C@@H](C3)N4C(=O)OC)c(C)c(-c3c(C)noc3C)n2)c1 (stereo partly shown) [Example 266-1a] | < 5
